From US11883404B2, “Preparation and composition for treatment of malignant tumors” (TAIHO PHARMACEUTICAL CO., LTD., priority 2016, dated 2024)
Structures can show the parent of a compound that is named as a salt. Where two headings read alike, the source gives them in different places.

How the values were obtained:
[1] = test system: human gastric cancer line SNU-16; format: in vivo; conditions: alone
Description: The day at which the grouping was carried out was defined as Day 0. TV (mm^3)=(Major axis×Minor axis^2)/2(units for the major axis and the minor axis were mm).
(§1) RTV was calculated according to the expression given below from TV values on the day of measurement and on the day of grouping. […] RTV=(TV on the day of measurement)/(TV on the day of grouping) T/C (%)=(Average RTV in each medicine administration group on the day of assessment)/(Average RTV in the control group on the day of assessment)×100

[2] = test system: human endometrial cancer line AN3CA; experiment: Antitumor effect of Compound 1 and gemcitabine on subcutaneously implanted AN3CA tumor in nude mouse (Example 4); format: in vivo, BALB/cAJcl-nu/nu mice; conditions: Day 15
Description: Gemcitabine was administered at 100 mg/kg/day from the tail vein at Day 1 and Day 8.

[3] = test system: human endometrial cancer line AN3CA; experiment: Antitumor effect of Compound 1 and Compound 2 on subcutaneously implanted AN3CA tumor in nude mouse (Example 16); format: in vivo, BALB/cAJcl-nu/nu mice; conditions: alone, Day 15
Description: The day at which the grouping was carried out was defined as Day 0. TV(mm^3)=(Major axis×Minor axis^2)/2(units for the major axis and the minor axis were mm).
The dose of Compound 2 was set in consideration of well tolerated dose for nude mice, etc.
as §1

[4] = test system: human endometrial cancer line AN3CA; conditions: for T/C (%): Day 11
[5] = test system: human endometrial cancer line AN3CA; conditions: alone, Day 15
Description: An engrafted tumor was removed from the mice, chopped into fragments of 2 mm square, and then subcutaneously implanted to 6-week-old female BALB/cAJcl-nu/nu mice.
Everolimus was orally administered each day at 2 mg/kg/day for 14 days.

[6] = test system: human gastric cancer line SNU-16; experiment: Antitumor effect of Compound 1 and paclitaxel on subcutaneously implanted SNU-16 tumor in nude mouse (Example 2); conditions: for T/C (%): Day 15
[7] = test system: human endometrial cancer line AN3CA; experiment: Apoptosis induction, CellEvent Caspase-3/7 Green Detection, Compound 1 and Compound 2 (Example 14); format: cell-based; conditions: Compound 1 100 nM, Compound 2 100 nM, 24 hours
Description: (§2) The presence or absence of induction of apoptosis by concomitant use was observed using CellEvent™ Caspase-3/7 Green Detection Reagent (Invitrogen Corp.). […] The concentration of Compound 2 was set to 100 nM. These medicines used alone (DMSO was added as a control) or concomitantly were comparatively studied. […] Apoptosis was detected by adding 6 μL of CellEvent™ Caspase-3/7 Green Detection Reagent (Invitrogen Corp.) solution per well to the cells, incubating the cells at 37° C. for 30 minutes, and then measuring cell images in the bright field and fluorescence signals, under a fluorescence microscope. The observed fluorescence signals indicate the induction of Caspase 3/7, and the amplitude of the signals represents the presence or absence of induction of apoptosis-like cell death.

[8] = test system: human small cell lung cancer cell line DMS 114; experiment: Cell survival rate assay (CellTiter-Glo 2.0), IC50 and combination index of Compound 1 and Compound 2 (Example 15); format: cell-based; conditions: each medicine alone, 72 hours
Description: A human small cell lung cancer cell line DMS 114 was cultured using a Waymouth's medium containing 10% fetal bovine serum. The cells were maintained at 37° C. under 5% CO2 and subcultured at a ratio of 1:5 to 1:20 by 1 to 2 passages per week.
Cell survival rate was measured using CellTiter-Glo 2.0 (produced by Promega Corp.). The cells were collected by an ordinary method, then suspended in a Waymouth's medium containing 10% fetal bovine serum, and seeded in a 96-well plate. The number of cells seeded per well was set to 2000 cells/50 μL. […] In addition to groups of each medicine alone, groups of both the medicines simultaneously added were prepared in parallel. […] Cell survival rates were calculated by adding 50 μL of CellTiter-Glo 2.0 solution to each well, incubating the cells at room temperature for 15 minutes, and then measuring the chemiluminescence intensity of each well using a plate reader (FlexStation 3). The cell survival rates in medicine addition were calculated as a ratio vs. the control group (100%) according to the following equation: Cell survival rate (%)=(Chemiluminescence intensity at the time of medicine addition)/(Chemiluminescence intensity of the control group)×100
Also, Fa (fraction of affect) values were calculated by subtracting a 1/100 value of the cell survival rate from 1. […]

[9] = test system: human endometrial cancer line AN3CA; experiment: Apoptosis induction, CellEvent Caspase-3/7 Green Detection, Compound 1 and MK2206 (Example 9); format: cell-based; conditions: Compound 1 10 nM, MK2206 dihydrochloride 300 nM (free form), 24 hours
Description: as §2, with “MK2206 dihydrochloride” for “Compound 2”, “300 nM (in terms of a free form).” for “100 nM.”, “1” for “6”

phosphorylated AKT = experiment: Western blot, intracellular phosphorylation of AKT in AN3CA (Example 11); format: cell-based, human; conditions: Compound 1 10 and 100 nM, MK2206 dihydrochloride 5 μM
Description: The intracellular phosphorylation levels of ERK, AKT, mTOR and S6 were detected by Western blot method. […] Likewise, MK2206 dihydrochloride was added at a final concentration of 5 μM (in terms of a free form), and everolimus was added at a final concentration of 3 nM. Each medicine alone and each combination were studied. DMSO was added as a control at a final concentration of 0.2%. […] The amounts of phosphorylated AKT, phosphorylated ERK, phosphorylated mTOR, phosphorylated S6 and GAPDH were detected using Western blot according to an ordinary method.

phosphorylated mTOR = experiment: Western blot, intracellular phosphorylation of mTOR in AN3CA (Example 11); format: cell-based, human; conditions: everolimus 3 nM alone
Description: The intracellular phosphorylation levels of ERK, AKT, mTOR and S6 were detected by Western blot method. […] Likewise, MK2206 dihydrochloride was added at a final concentration of 5 μM (in terms of a free form), and everolimus was added at a final concentration of 3 nM. Each medicine alone and each combination were studied. DMSO was added as a control at a final concentration of 0.2%.
Then, cell lysates were prepared using RIPA Buffer [composition: 50 mM Tris-HCl (pH 8.0), 150 mM NaCl, 5 mM EDTA, 1% (w/w) Nonidet P-40, 0.1% (w/w) sodium deoxycholate, and 0.1% (w/w) SDS]. The amounts of phosphorylated AKT, phosphorylated ERK, phosphorylated mTOR, phosphorylated S6 and GAPDH were detected using Western blot according to an ordinary method.

[10] = test system: Human lung cancer line HCC4006; conditions: 100 ng/mL FGF7, 72 hours
Description: (§3) Cell survival rates were measured using CellTiter-Glo. The cells were recovered by an ordinary method, suspended in the above medium containing 10% fetal bovine serum, and seeded in a 96-well plate. The number of cells seeded per well was set to 2000 cells/70 μL. […] In order to study effects on the activated FGF/FGFR pathway in the cells, a ligand FGF2 or FGF7 was added to the cells and compared with non-addition. […] DMSO was added to a control well, and 10 ng/mL FGF2 or 100 ng/mL FGF7 was added to the medium.
(§4) The cells were incubated at 37° C. for 72 hours under 5% CO2. Then, 100 μL of CellTiter-Glo solution was added to each well, and the cells were incubated at room temperature for 10 minutes, followed by the measurement of chemiluminescence intensity using a plate reader (ARVO). Growth inhibitory effects relative to the vehicle group were calculated from the obtained data.

[11] = test system: Human lung cancer line NCI-H1650; conditions: 100 ng/mL FGF7, 72 hours
Description: as §3, §4

[12] = Compound 1 15 mg/kg/day orally once a day for 14 days, alone

`C=CC(=O)N1CC[C@H](n2nc(C#Cc3cc(OC)cc(OC)c3)c3c(N)ncnc32)C1` [Compound 1, (S)-1-(3-(4-Amino-3-((3,5-dimethoxyphenyl)ethynyl)-1H-pyrazolo[3,4-d]pyrimidin-1-yl)pyrrolidin-1-yl)prop-2-en-1-one] was tested, and the “T/C (%)” value ([1]; Compound 1 5 mg/kg/day orally once a day for 14 days, day of assessment (Day 15)) was 83.6%, the “T/C (%)” value ([1]; Compound 1 15 mg/kg/day orally once a day for 14 days, Day 15) was 69.0% and the “T/C (%)” value ([2]; Compound 1 15 mg/kg/day orally each day for 14 days, alone) was 42.1%. The “T/C (%)” value ([3]; Compound 1 15 mg/kg/day orally once a day for 14 days) was 22.1%, the “T/C (%)” value [4, 12] was 46.0% and the “T/C (%)” value ([5]; Compound 1 15 mg/kg/day orally each day for 14 days) was 33.3%. The “T/C (%)” value ([5]; Compound 1 50 mg/kg/day orally each day for 14 days) was 12.6%, the “T/C (%)” value ([6]; Compound 1 5 mg/kg/day orally once a day for 14 days, alone) was 83.6% and the “T/C (%)” value [6, 12] was 69.0%.

`CC1(O)CC(N)(c2ccc(-c3nc4n(c3-c3ccccc3)COc3ccncc3-4)cc2)C1` (stereo not drawn) [Compound 2, trans-3-amino-1-methyl-3-(4-(3-phenyl-5H-imidazo[1,2-c]pyrido[3,4-e][1,3]oxazin-2-yl)phenyl)cyclobutanol] was tested, and the “induction of cell death (Caspase 3/7 fluorescence signals)” value [7] was “hardly found”, the IC50 [8] was 4.86 µM and the “T/C (%)” value ([3]; Compound 2 4 mg/kg/day orally once a day for 14 days) was 58.6%. For the same molecule, the “T/C (%)” value ([3]; Compound 2 8 mg/kg/day orally once a day for 14 days) was 55.4%.

With `NC1(c2ccc(-c3nc4ccn5c(=O)[nH]nc5c4cc3-c3ccccc3)cc2)CCC1` [MK2206 dihydrochloride, 8-[4-(1-aminocyclobutyl)phenyl]-9-phenyl-1,2,4-triazolo[3,4-f][1,6]naphthyridin-3(2H)-one] the “induction of cell death (Caspase 3/7 fluorescence signals)” value [9] was “hardly found” and the AKT phosphorylation (phosphorylated AKT) was “inhibited”.

For `N.N.[Cl][Pt][Cl]` [cisplatin], the “T/C (%)” value ([4]; cisplatin 7 mg/kg/day tail vein at Day 1, alone) was 53.0% and the “body weight change of the mice” value ([4]; mouse, in vivo) was “transient decrease in body weight”.

With `CO[C@H]1C[C@@H]2CC[C@@H](C)[C@@](O)(O2)C(=O)C(=O)N2CCCC[C@H]2C(=O)O[C@H]([C@H](C)C[C@@H]2CC[C@@H](OCCO)[C@H](OC)C2)CC(=O)[C@H](C)/C=C(\C)[C@@H](O)[C@@H](OC)C(=O)[C@H](C)C[C@H](C)/C=C/C=C/C=C/1C` [everolimus, reference compound] the mTOR phosphorylation (phosphorylated mTOR) was “inhibited” and the “T/C (%)” value ([5]; everolimus 2 mg/kg/day orally each day for 14 days) was 27.1%.

With `COc1cc2ncnc(Nc3ccc(F)c(Cl)c3)c2cc1OCCCN1CCOCC1` [gefitinib] the “drug effect of gefitinib on addition of the FGFR ligand FGF7” value [10] was “attenuated” and the “drug effect of gefitinib on addition of the FGFR ligand FGF7” value [11] was “attenuated”.

In the case of `Nc1ccn([C@@H]2O[C@H](CO)[C@@H](O)C2(F)F)c(=O)n1` [gemcitabine, reference compound], the “T/C (%)” value ([2]; gemcitabine 100 mg/kg/day tail vein at Day 1 and Day 8, alone) is reported as 75.5%.

For `CC(=O)O[C@H]1C(=O)[C@@]2(C)[C@H]([C@H](OC(=O)c3ccccc3)[C@]3(O)C[C@H](OC(=O)[C@H](O)[C@@H](NC(=O)c4ccccc4)c4ccccc4)C(C)=C1C3(C)C)[C@]1(OC(C)=O)CO[C@@H]1C[C@@H]2O` [paclitaxel, reference compound], the “body weight change of the mice” value ([6]; paclitaxel 60 mg/kg, concomitant use group vs each medicine group) was “transient decrease in body weight” and the “T/C (%)” value ([6]; paclitaxel single dose 60 mg/kg/day tail vein at Day 1, alone) was 12.9%.
